Source: patent US20110039783A1, “PEPTIDE HAVING HYPOTENSIVE ACTIVITY” (DAIICHI SANKYO COMPANY LIMITED, priority 2007, published 2011)
Where no end group is shown, it is not given here. [ ]: non-standard residue; d: D form. Cha = N[C@@H](CC1CCCCC1)C(=O)O

Test system: blood pressure of anesthetized Sprague-Dawley IGS male rats
Test: Hypotensive activity in anesthetized rats, invasive blood pressure measurement after intravenous administration
Assay type: in vivo, rat
Details: for Hypotensive activity (dose/rat) 10 nmol / Hypotensive activity (dose/rat) 30 nmol / Hypotensive activity (dose/rat) 100 nmol: anesthetized rats, intravenous; for Hypotensive activity (dose/rat) 10 nmol: 10 nmol/rat; for Hypotensive activity (dose/rat) 30 nmol: 30 nmol/rat; for Hypotensive activity (dose/rat) 100 nmol: 100 nmol/rat; for dose dependence of hypotensive activity: anesthetized rats, 10, 30, 100 nmol/rat
Experimental: 50 mg/kg pentobarbital sodium was intraperitoneally administered to 8- to 10-week-old Sprague-Dawley IGS male rats (Charles River Laboratories Japan, Inc.) for anesthesia. Thereafter, a tracheal cannula (PE 250), a femoral vein cannula (PE50), and a femoral artery cannula (PESO) were inserted into each rat. The femoral artery cannula was connected with a pressure transducer (PE23XL; manufactured by Nihon Kohden Corporation), and an apparatus formed by incorporating a blood pressure measurement unit (AP-641G; manufactured by Nihon Kohden Corporation) and an instantaneous heart rate measurement unit (AT-601G; manufactured by Nihon Kohden Corporation) into a multi-purpose preamplifier (RP-6004; manufactured by Nihon Kohden Corporation) was used to record the blood pressure and heart rate of each rat. The blood pressure was calibrated using a mercury manometer included in a stand-type electromanometer (MP-25S; manufactured by Nihon Kohden Corporation). The recording paper was adjusted, such that 10 mm or 20 mm on the recording paper corresponded to 100 mmHg.
Each peptide was dissolved in a concentration of 1 mM or 10 mM in a 0.1% acetic acid solution to prepare a peptide solution. Thereafter, depending on dose, it was diluted with a normal saline containing 0.1% bovine serum albumin (Fr.V). In the case of the dose of 10 nmol/rat, a 1 mM peptide solution was 10 times diluted, and 100 μl of the diluted solution was administered. In the case of the dose of 30 nmol/rat, a 1 mM peptide solution was 10 times diluted, and 300 μL, of the diluted solution was administered. In the case of the dose of 100 nmol/rat, a 10 mM peptide solution was 10 times diluted, and 100 μL of the diluted solution was administered. Each peptide was intravenously administered via the femoral vein cannula, and the systolic blood pressure, diastolic blood pressure, and heart rate were then measured.
Various HC021 derivative peptides were synthesized in accordance with Example 1, and such peptide was then administered to each rat at a dose of 10 nmol/rat, 30 nmol/rat, or 100 mol/rat by the method described in Example 2. Thereafter, the hypotensive activity of each derivative peptide was measured. […] The strength of such activity was determined using a median of activity in repeated experiments. In addition, in order to make a comparison among the activities of various derivative peptides, the strength of hypotensive activity was defined as follows.
Strength of Hypotensive Activity
Extremely strong activity (+++): A decrease in systolic blood pressure is 30 mmHg or more, and the time required for recovery is 5 minutes or more.
Strong activity (++): A decrease in systolic blood pressure is 20 mmHg or more and less than 30 mmHg, or the time required for recovery is less than 5 minutes.
Activity observed (+): A decrease in systolic blood pressure is less than 20 mmHg.
Activity not observed (−)
Various HC021 peptide sequence-substituted products were synthesized in accordance with Example 1, and their hypotensive activity was then measured according to the method of Example 3.

| Substance | Hypotensive activity (dose/rat) 10 nmol (Table 3) | Hypotensive activity (dose/rat) 30 nmol (Table 3) | Hypotensive activity (dose/rat) 30 nmol (Table 2) | Hypotensive activity (dose/rat) 100 nmol (Table 2) | also measured |
| --- | --- | --- | --- | --- | --- |
| ATLGSEDTWKPLSNPRNRDLFPRRLQAYFK-amide [Compound 35] | − | ++ (Strong activity (++): A decrease in systolic blood pressure is 20 mmHg or more and less than 30 mmHg, or the time required for recovery is less than 5 minutes.) |  |  |  |
| ATLGSEDTWKPLSNPRNRELFFRSLQAYF-amide [Compound 38] | − | − |  |  | Hypotensive activity (dose/rat) 100 nmol (Table 3): ++ (Strong activity (++): A decrease in systolic blood pressure is 20 mmHg or more and less than 30 mmHg, or the time required for recovery is less than 5 minutes.) |
| ATLGSEDTWKPLSNPRNRELFFRSLQAYFK-amide [Compound 37] | − | − |  |  | Hypotensive activity (dose/rat) 100 nmol (Table 3): ++ (Strong activity (++): A decrease in systolic blood pressure is 20 mmHg or more and less than 30 mmHg, or the time required for recovery is less than 5 minutes.) |
| ATLRNEDTWKPLSNPRNRDLFFRRLQAYFK-amide [Compound 34] | − | + (Activity observed (+): A decrease in systolic blood pressure is less than 20 mmHg.) |  |  |  |
| ATVRNEDKWKPLNNPRNRDLFF [Compound 1] |  |  | − | − | Hypotensive activity (dose/rat) 10 nmol (Table 1): −; Hypotensive activity (dose/rat) 30 nmol (Table 1): −; Hypotensive activity (dose/rat) 100 nmol (Table 1): −; Hypotensive activity (dose/rat) 10 nmol (Table 2): − |
| ATVRNEDKWKPLNNPRNRDLFFRRLQAYF [Compound 9] |  |  | − | +++ (Extremely strong activity (+++): A decrease in systolic blood pressure is 30 mmHg or more, and the time required for recovery is 5 minutes or more.) |  |
| ATVRNEDKWKPLNNPRNRDLFFRRLQAYF-amide [Compound 10] |  |  | ++ (Strong activity (++): A decrease in systolic blood pressure is 20 mmHg or more and less than 30 mmHg, or the time required for recovery is less than 5 minutes.) |  | Hypotensive activity (dose/rat) 10 nmol (Table 2): − |
| ATVRNEDKWKPLNNPRNRDLFFRRLQAYFK (not fully specified) [Compound 8] |  |  | − | +++ (Extremely strong activity (+++): A decrease in systolic blood pressure is 30 mmHg or more, and the time required for recovery is 5 minutes or more.) |  |
| DLFFRRLQAYFK-amide (DLFFRRLQAYFK-NH2) [Compound 17] |  |  | ++ (Strong activity (++): A decrease in systolic blood pressure is 20 mmHg or more and less than 30 mmHg, or the time required for recovery is less than 5 minutes.) | +++ (Extremely strong activity (+++): A decrease in systolic blood pressure is 30 mmHg or more, and the time required for recovery is 5 minutes or more.) | Hypotensive activity (dose/rat) 10 nmol (Table 2): −; dose dependence of hypotensive activity: enhanced their hypotensive activity in a dose-dependent manner |
| FFRRLQAYFK-amide (FFRRLQAYFK-NH2) [Compound 20] |  |  | − | − |  |
| FRRLQAYFK-amide (FRRLQAYFK-NH2) [Compound 21] |  |  | − | − |  |
| FVPIFTYGELQRMQNRDLFFRRLQAYFK-amide (FVPIFTYGELQRMQNRDLFFRRLQAYFK-NH2) [Compound 39] | − | − |  |  | Hypotensive activity (dose/rat) 100 nmol (Table 3): +++ (Extremely strong activity (+++): A decrease in systolic blood pressure is 30 mmHg or more, and the time required for recovery is 5 minutes or more.) |
| GATVRNEDKWKPLNNPRNRDLFFRRLQAYFK-amide [Compound 7] |  |  | ++ (Strong activity (++): A decrease in systolic blood pressure is 20 mmHg or more and less than 30 mmHg, or the time required for recovery is less than 5 minutes.) |  | Hypotensive activity (dose/rat) 10 nmol (Table 2): − |
| LFERRLQAYFKNGAEDESAEAFPLEF-amide (LFERRLQAYFKNGAEDESAEAFPLEF-NH2) [Compound 48] | +++ (Extremely strong activity (+++): A decrease in systolic blood pressure is 30 mmHg or more, and the time required for recovery is 5 minutes or more.) |  |  |  |  |
| LFFRRLQA(Cha)FK-amide (LFFRRLQA[Cha]FK-NH2; N-terminus assumed; SMILES CC(C)C[C@H](NC(=O)[C@H](CCCNC(=N)N)NC(=O)[C@H](CCCNC(=N)N)NC(=O)[C@H](Cc1ccccc1)NC(=O)[C@H](Cc1ccccc1)NC(=O)[C@@H](N)CC(C)C)C(=O)N[C@@H](CCC(N)=O)C(=O)N[C@@H](C)C(=O)N[C@@H](CC1CCCCC1)C(=O)N[C@@H](Cc1ccccc1)C(=O)N[C@@H](CCCCN)C(N)=O) [Compound 45] | + (Activity observed (+): A decrease in systolic blood pressure is less than 20 mmHg.) | +++ (Extremely strong activity (+++): A decrease in systolic blood pressure is 30 mmHg or more, and the time required for recovery is 5 minutes or more.) |  |  |  |
| LFFRRLQA-amide (LFFRRLQA-NH2) [Compound 26] |  |  | − | − |  |
| LFFRRLQAHFK-amide (LFFRRLQAHFK-NH2) [Compound 47] | − | − |  |  | Hypotensive activity (dose/rat) 100 nmol (Table 3): +++ (Extremely strong activity (+++): A decrease in systolic blood pressure is 30 mmHg or more, and the time required for recovery is 5 minutes or more.) |
| LFFRRLQALFK-amide (LFFRRLQALFK-NH2) [Compound 44] | − | ++ (Strong activity (++): A decrease in systolic blood pressure is 20 mmHg or more and less than 30 mmHg, or the time required for recovery is less than 5 minutes.) |  |  |  |
| LFFRRLQAWFK-amide (LFFRRLQAWFK-NH2) [Compound 46] | − | − |  |  | Hypotensive activity (dose/rat) 100 nmol (Table 3): + (Activity observed (+): A decrease in systolic blood pressure is less than 20 mmHg.) |
| LFFRRLQAY-amide (LFFRRLQAY-NH2) [Compound 25] |  |  | − | + (Activity observed (+): A decrease in systolic blood pressure is less than 20 mmHg.) |  |
| LFFRRLQAYF-amide (LFFRRLQAYF-NH2) [Compound 24] |  |  | ++ (Strong activity (++): A decrease in systolic blood pressure is 20 mmHg or more and less than 30 mmHg, or the time required for recovery is less than 5 minutes.) |  |  |
| LFFRRLQAYFK [Compound 18] |  |  | − | ++ (Strong activity (++): A decrease in systolic blood pressure is 20 mmHg or more and less than 30 mmHg, or the time required for recovery is less than 5 minutes.) |  |
| LFFRRLQAYFK-amide (LFFRRLQAYFK-NH2) [Compound 19] | + (Activity observed (+): A decrease in systolic blood pressure is less than 20 mmHg.) | ++ (Strong activity (++): A decrease in systolic blood pressure is 20 mmHg or more and less than 30 mmHg, or the time required for recovery is less than 5 minutes.) | ++ (Strong activity (++): A decrease in systolic blood pressure is 20 mmHg or more and less than 30 mmHg, or the time required for recovery is less than 5 minutes.) | +++ (Extremely strong activity (+++): A decrease in systolic blood pressure is 30 mmHg or more, and the time required for recovery is 5 minutes or more.) | Hypotensive activity (dose/rat) 10 nmol (Table 2): + (Activity observed (+): A decrease in systolic blood pressure is less than 20 mmHg.); Hypotensive activity (dose/rat) 100 nmol (Table 3): +++ (Extremely strong activity (+++): A decrease in systolic blood pressure is 30 mmHg or more, and the time required for recovery is 5 minutes or more.); dose dependence of hypotensive activity: enhanced their hypotensive activity in a dose-dependent manner |
| LFFRRLQAYFKASASADYEEQKNSFHNYLK- amide [Compound 49] | +++ (Extremely strong activity (+++): A decrease in systolic blood pressure is 30 mmHg or more, and the time required for recovery is 5 minutes or more.) |  |  |  |  |
